In patent publication US7053097B1, “Inhibitors of glycogen synthase 3 kinase” (Chiron Corporation, priority 1996, dated 2006):

Target: GSK-3β (Homo sapiens, UniProt P49841)
Test: GSK3 kinase inhibition assay, biotin-phosphopeptide substrate, streptavidin plate scintillation counting
Assay type: biochemical
Conditions: compound at 1 μM; 180 min at room temperature
Description: (B) The compounds prepared in Example 1 above were assayed for activity as follows:
A 96-well round bottom plate was blocked by incubation with 400 μl/well 1% BSA/PBS for 60 min at room temperature. The blocking reagent was then aspirated. An enzyme/substrate buffer was prepared (1.225 ml 1M Tris-HCl, pH 7.5, 0.41 ml 1M MgCl2, 41 μl DTT, 250 μl 500 μg/ml GSK-3β, 9.5 μl 5 mg/ml biotin-phosphopeptide, 33.1 ml 1% BSA/PBS), and 300 μl enzyme/substrate/buffer was added to each well.
Varying concentrations of each compound were added to individual wells, or staurosporine in DMSO (final concentrations of staurosporine 100 nM or 20 nM). Next 50 μl/well ATP mixture (3.85 μl 10 mM cold ATP, 8 μl hot ATP, 5.5 ml H2O) was added, and the reaction allowed to proceed for 180 min at room temperature.
Three streptavidin-coated Labsystems Combiplate 8 plates were blocked with 1% BSA/PBS, 300 μl/well, for ≧60 min at room temperature, and the blocking reagent aspirated. Stopping reagent (50 μM ATP, 20 mM EDTA) (100 μl/well) was added to the streptavidin-coated plates, and 100 μl of the enzyme reaction mixture transferred to the streptavidin-coated plates in triplicate. […] Finally, Microscint-20 scintillation fluid (200 μl/well) was added to the plates, the plates sealed, and after incubating for 30 min, counted on a TopCount counter.

Chain of GSK-3β (P49841 whole entry, species assumed): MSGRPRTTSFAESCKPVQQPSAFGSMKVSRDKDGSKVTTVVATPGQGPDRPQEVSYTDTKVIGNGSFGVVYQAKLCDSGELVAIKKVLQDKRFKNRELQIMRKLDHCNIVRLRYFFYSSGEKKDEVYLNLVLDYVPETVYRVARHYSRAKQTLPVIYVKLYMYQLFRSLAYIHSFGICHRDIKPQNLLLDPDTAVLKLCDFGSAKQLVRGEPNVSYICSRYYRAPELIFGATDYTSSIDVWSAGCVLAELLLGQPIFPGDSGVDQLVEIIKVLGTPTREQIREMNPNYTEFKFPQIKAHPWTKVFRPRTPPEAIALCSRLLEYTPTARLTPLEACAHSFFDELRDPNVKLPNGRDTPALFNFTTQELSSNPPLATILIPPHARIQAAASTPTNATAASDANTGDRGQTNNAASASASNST

inhibition at 1 µM: 63%
Compound: COCC(=O)N(CC(N)=O)c1nc(NCc2ccc(C(F)(F)F)cc2)c2ncn(C)c2n1 [Compound 21208]
